Tested on: LG0703-F948-PDC complex spheroid viability
Assay: Anticancer human tumor LG0703-F948-PDC patient-derived lung adenocarcinoma cell line growth inhibition [RAS]
Settings: for IC50: curve of first compound; for viability, T/C: stronger effect = lower value
Outline: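 Multi-cell-type spheroids: tumor cells plus HUVEC endothelial cells and mesenchymal stem cells. RAS-pathway inhibitors were combined with targeted agents, each dosed in half-log steps down from clinical Cmax, or from 10 microM when Cmax was unknown.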

[1] = second compound 0.0316 µM, first compound 0.0316 µM
[2] = second compound 0.0316 µM, first compound 0.1 µM
[3] = second compound 0.0316 µM, first compound 0.316 µM
[4] = second compound 0.0316 µM, first compound 1 µM
[5] = second compound 0.1 µM, first compound 0.0316 µM
[6] = second compound 0.1 µM, first compound 0.1 µM
[7] = second compound 0.1 µM, first compound 0.316 µM
[8] = second compound 0.1 µM, first compound 1 µM
[9] = second compound 0.316 µM, first compound 0.0316 µM
[10] = second compound 0.316 µM, first compound 0.1 µM
[11] = second compound 0.316 µM, first compound 0.316 µM
[12] = second compound 0.316 µM, first compound 1 µM
[13] = second compound 1 µM, first compound 0.0316 µM
[14] = second compound 1 µM, first compound 0.1 µM
[15] = second compound 1 µM, first compound 0.316 µM
[16] = second compound 1 µM, first compound 1 µM
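Also: spheroids exposed to agents for 7 days.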
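For viability, T/C in this document: 100% = DMSO vehicle wells.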

C[C@@H](NC(=O)c1ncnc(N)c1Cl)c1ncc(C(=O)Nc2cc(C(F)(F)F)c(Cl)cn2)s1 + C#Cc1c(F)ccc2cc(O)cc(-c3ncc4c(N5CC6CCC(C5)N6)nc(OCC56CCCN5CC(F)C6)nc4c3F)c12
IC50 (second compound 0.0316 µM): > 10000 nM
IC50 (second compound 0.1 µM): > 10000 nM
IC50 (second compound 0.316 µM): > 10000 nM
IC50 (second compound 1 µM): > 10000 nM
IC50 (second compound 3.16 µM): > 10000 nM
IC50 (second compound 10 µM): > 10000 nM
viability, T/C [1]: 108%
viability, T/C [2]: 92.3%
viability, T/C [3]: 101%
viability, T/C [4]: 96.7%
viability, T/C (second compound 0.0316 µM, first compound 3.16 µM): 103%
viability, T/C (second compound 0.0316 µM, first compound 10 µM): 104%
viability, T/C [5]: 87.5%
viability, T/C [6]: 87.6%
viability, T/C [7]: 98.3%
viability, T/C [8]: 103%
viability, T/C (second compound 0.1 µM, first compound 3.16 µM): 104%
viability, T/C (second compound 0.1 µM, first compound 10 µM): 98.3%
viability, T/C [9]: 85.8%
viability, T/C [10]: 76.6%
viability, T/C [11]: 87.3%
viability, T/C [12]: 95.4%
viability, T/C (second compound 0.316 µM, first compound 3.16 µM): 109%
viability, T/C (second compound 0.316 µM, first compound 10 µM): 99%
viability, T/C [13]: 86.7%
viability, T/C [14]: 74.1%
viability, T/C [15]: 64.3%
viability, T/C [16]: 83.5%
viability, T/C (second compound 1 µM, first compound 3.16 µM): 73.5%
viability, T/C (second compound 1 µM, first compound 10 µM): 80%
viability, T/C (second compound 3.16 µM, first compound 0.0316 µM): 63.1%
viability, T/C (second compound 3.16 µM, first compound 0.1 µM): 66.3%
viability, T/C (second compound 3.16 µM, first compound 0.316 µM): 58.6%
viability, T/C (second compound 3.16 µM, first compound 1 µM): 68%
viability, T/C (second compound 3.16 µM, first compound 3.16 µM): 65.4%
viability, T/C (second compound 3.16 µM, first compound 10 µM): 66.6%
viability, T/C (second compound 10 µM, first compound 0.0316 µM): 56.8%
viability, T/C (second compound 10 µM, first compound 0.1 µM): 60.5%
viability, T/C (second compound 10 µM, first compound 0.316 µM): 56.4%
viability, T/C (second compound 10 µM, first compound 1 µM): 56.1%
viability, T/C (second compound 10 µM, first compound 3.16 µM): 70.9%
viability, T/C (second compound 10 µM, first compound 10 µM): 39.5%

O=C(c1ccc(F)c(F)c1Nc1ccc(I)cc1F)N1CC(O)([C@@H]2CCCCN2)C1 + C=CC(=O)N1CCN(c2nc(OCC3CCCN3C)nc3c(F)c(-c4nc(N)cc(C)c4C(F)(F)F)c(Cl)cc23)C(C)C1
IC50 (second compound 0.00316 µM): 27.1 nM
IC50 (second compound 0.01 µM): 34 nM
IC50 (second compound 0.0316 µM): 35.6 nM
IC50 (second compound 0.1 µM): 31.7 nM
IC50 (second compound 0.316 µM): 36.3 nM
IC50 (second compound 1 µM): 46 nM
viability, T/C (second compound 0.00316 µM, first compound 0.00316 µM): 92.1%
viability, T/C (second compound 0.00316 µM, first compound 0.01 µM): 69.6%
viability, T/C (second compound 0.00316 µM, first compound 0.0316 µM): 47.3%
viability, T/C (second compound 0.00316 µM, first compound 0.1 µM): 30.2%
viability, T/C (second compound 0.00316 µM, first compound 0.316 µM): 19.5%
viability, T/C (second compound 0.00316 µM, first compound 1 µM): 16.7%
viability, T/C (second compound 0.01 µM, first compound 0.00316 µM): 92.6%
viability, T/C (second compound 0.01 µM, first compound 0.01 µM): 79.5%
viability, T/C (second compound 0.01 µM, first compound 0.0316 µM): 51.3%
viability, T/C (second compound 0.01 µM, first compound 0.1 µM): 26.8%
viability, T/C (second compound 0.01 µM, first compound 0.316 µM): 16.8%
viability, T/C (second compound 0.01 µM, first compound 1 µM): 13.2%
viability, T/C (second compound 0.0316 µM, first compound 0.00316 µM): 94.2%
viability, T/C (second compound 0.0316 µM, first compound 0.01 µM): 81.2%
viability, T/C [1]: 52.3%
viability, T/C [2]: 27.7%
viability, T/C [3]: 17.6%
viability, T/C [4]: 14.2%
viability, T/C (second compound 0.1 µM, first compound 0.00316 µM): 89.7%
viability, T/C (second compound 0.1 µM, first compound 0.01 µM): 74.1%
viability, T/C [5]: 50.6%
viability, T/C [6]: 27.9%
viability, T/C [7]: 18.9%
viability, T/C [8]: 13.8%
viability, T/C (second compound 0.316 µM, first compound 0.00316 µM): 90.8%
viability, T/C (second compound 0.316 µM, first compound 0.01 µM): 82.5%
viability, T/C [9]: 52.8%
viability, T/C [10]: 27%
viability, T/C [11]: 19.7%
viability, T/C [12]: 17.5%
viability, T/C (second compound 1 µM, first compound 0.00316 µM): 99.8%
viability, T/C (second compound 1 µM, first compound 0.01 µM): 92.7%
viability, T/C [13]: 58.4%
viability, T/C [14]: 30.9%
viability, T/C [15]: 23.6%
viability, T/C [16]: 18%

From PubChem BioAssay AID2060890 (Molecular Pharmacology Branch, DTP, NCI, 2025)
